# Entries after “also recorded” stand apart in the source; their conditions may differ. Read-outs that look alike come from different tables or passages of the source.
# Experiments:
# 5-HT (h) = molecular target: T1, 5-HT (h) (Homo sapiens, UniProt P31645); assay: cell-based; format: cell-based; settings: read-out: 5-HT (h) in vitro functional uptake
# T1 construct: expressed in transfected cells; host or cells: HEK-293
# Procedure: (§1) Functional activity of the compounds was determined in vitro in cellular assays using recombinant human cell lines.
# DAT (h) = molecular target: T2, DAT (h) (Homo sapiens, UniProt Q01959); assay: cell-based; format: cell-based
# T2 construct: expressed in transfected cells
# Procedure: as §1
# NET (h) = molecular target: T3, NET (h) (Homo sapiens, UniProt P23975); assay: cell-based; format: cell-based; settings: read-out: NET (h) in vitro functional uptake
# T3 construct: expressed in transfected cells; host or cells: MDCK
# Procedure: as §1
# DAT (r) = DAT (r) (Rattus norvegicus, UniProt P23977); assay: in vitro functional uptake, rat DAT; format: cell-based
# DAT (SLC6A3) = molecular target: T4, DAT (SLC6A3) (Homo sapiens, UniProt Q01959); assay: in vitro inhibition profile, IC50 of DAT (uptake assay); format: cell-based; settings: for fold selectivity of DAT against related receptors (NET, 5-HT): from Table II IC50
# T4 construct: expressed in transfected cells
# Procedure: Before the assay, cells expressing DAT are washed once with KRH and equilibrated for 5 min. The cells may be assayed in 24-well plates and incubated for 2-5 min. with tritiated amines. Nontransported inhibitors were preincubated for 5 min, and substrates were applied together with the tritiated substrate.
# Experiments to determine the ionic requirements for DAT-mediated uptake are done in KRH buffer, substituting LiCl or choline Cl for NaCl (sodium-dependence) or substituting D-gluconates for NaCl and KCl, and Ca(NO3)2 for CaCl2 (chloride dependence). Cells are washed twice with sodium- or chloride-free KRH before the assay (each wash step at least 5 min). In all transport assays, incubation periods and substrate concentrations are chosen such that uptake obeyed first-order rate kinetics.
# Vmax values for amine uptake in stable transfected DAT-cells are determined in parallel assays for at least two amines per experiment and expressed as relative values.
# [1] = molecular target: NET (norepinephrine transporter or SLC6A2) (Homo sapiens, UniProt P23975); assay: cell-based
# 5-HT = 5-HT (Homo sapiens, UniProt P31645); assay: cell-based
# M1 receptor = molecular target: T5, M1 receptor (Homo sapiens, UniProt P11229); assay: in vitro selectivity panel, M1 receptor; format: binding
# T5 sequence (P11229 1-460): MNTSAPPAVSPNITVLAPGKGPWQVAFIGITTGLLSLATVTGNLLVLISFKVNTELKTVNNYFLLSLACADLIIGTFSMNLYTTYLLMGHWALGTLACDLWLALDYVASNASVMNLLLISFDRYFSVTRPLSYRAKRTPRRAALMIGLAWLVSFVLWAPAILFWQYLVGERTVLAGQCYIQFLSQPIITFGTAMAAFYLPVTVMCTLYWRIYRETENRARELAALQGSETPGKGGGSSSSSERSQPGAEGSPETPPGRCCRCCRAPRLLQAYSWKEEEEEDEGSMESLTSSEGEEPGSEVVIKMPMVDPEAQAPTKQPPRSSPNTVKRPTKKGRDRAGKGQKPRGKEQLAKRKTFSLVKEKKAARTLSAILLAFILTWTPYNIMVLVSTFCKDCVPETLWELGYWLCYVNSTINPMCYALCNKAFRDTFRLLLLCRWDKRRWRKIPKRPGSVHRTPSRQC
# Procedure: (§2) The in vitro selectivity profile of two representative subject compounds, (3) and (1), are also tested against a panel of other receptors, including the M1 receptor, Histamine H1 receptor, sigma-1 (σ1) receptor, β1-adrenergic receptor, and dopamine D2 receptor. Representative results are listed below in Table III: […]
# Histamine H1 receptor = Histamine H1 receptor (Homo sapiens, UniProt P35367); assay: in vitro selectivity panel, Histamine H1 receptor; format: binding
# Procedure: as §2
# sigma-1 (σ1) receptor = sigma-1 (σ1) receptor (Homo sapiens, UniProt Q99720); assay: in vitro selectivity panel, sigma-1 receptor; format: binding
# Procedure: as §2
# β1-adrenergic receptor = β1-adrenergic receptor (Homo sapiens, UniProt P08588); assay: in vitro selectivity panel, β1-adrenergic receptor; format: binding
# Procedure: as §2
# dopamine D2 receptor = dopamine D2 receptor (Homo sapiens, UniProt P14416); assay: in vitro selectivity panel, dopamine D2 receptor; format: binding
# Procedure: as §2
# rats = assay: forced swim test (behavioral despair assay) in rats; format: in vivo; settings: rat; for forced swim test efficacy versus commercial drugs (FIG. 1): i.p., racemic mixtures of diastereomers
# Procedure: In vivo efficacy of several illustrative inhibitors of the instant invention, (1), (3), and (4), were measured using standard forced swim test model using rat. The objective of this study was to assess the antidepressant effects of test compounds in the behavioral despair assay in rats using a modification of a method described by Porsolt R. D. et al. in Behavioural despair in rats: a new model sensitive to antidepressant treatment, Eur. J. Pharmacol., 47: 379-391, 1978; Porsolt et al., Nature 266: 730-732, 1977; and Porsolt et al., in Psychopharmacology, Olivier, Mos, and Slangen (eds) Birkhäuser Verlag, Basel, pp. 137-159, 1991. Briefly, when mice (or rats) are forced to swim in a cylinder from which no escape is possible, they readily adopt a characteristic immobile posture and make no further attempts to escape except for small movements needed to keep floating. The immobility is considered by some to reflect a “depressive mood” (Porsolt et al., Nature 266: 730-732, 1977) in which animals cease to struggle to escape the aversive situation. The immobility induced by the procedure is influenced by a wide variety of antidepressants (Porsolt et al., in Psychopharmacology, Olivier, Mos, and Slangen (eds) Birkhauser Verlag, Basel, pp. 137-159, 1991) and has a good predictive validity in that it detects antidepressants with different mechanisms of action (TCAs, SSRIs, MAOIs, and other atypical ones). The test is sensitive to muscle-relaxant (benzodiazepines) and sedative (neuroleptics) effects, leading to enhanced immobility (Porsolt et al., supra).
# In a typical experiment, animals are placed singly into a cylinder (e.g. 46×30 cm) containing fresh water at about 20° C. for 6 minutes. The activity (or immobility) of the animal is measured by an observer minute by minute. In more detail, the animals were preconditioned in a pretest session, where the rats were individually forced to swim inside a vertical plexiglass cylinder containing water maintained at 19-20° C. After 15 minutes in the water, they were allowed to dry for […] in a heated enclosure. Twenty-four hours later, the compounds were administered either intraperitoneally or orally to the animals. One hour after administration of the test compound, animals were put back into the cylinder containing water. The total duration of immobility was measured during the last 4 minutes of a 6 minute test.
# The results are expressed as the percentage of variation of the total duration of immobility calculated from the mean value of the vehicle-treated group (% variation=[(immobility duration of vehicle−immobility duration of test compound)/(immobility duration of vehicle)]×100%).
# In order to measure the in vivo efficacy of inhibiting DAT in rats using an inhibitor of the instant invention, one test inhibitor ((1), (3), or (4)) was injected i.p. as racemic mixtures of diastereomers into the animals, at various-doses (e.g. 7.5 and […]). Sibutramine (2.0 and 2.5 mg/kg), Bupropion (7.5 and 10 mg/kg), and Imipramine (30 mg/kg) were similarly administered as controls. […] Asterisks indicate highly statistical significant results.
# A fourth inhibitor, (6) was administered p.o. as a racemic mixture of diastereomers at either 35 or 75 mg/kg. Sibutramine (5.0 and 3.75 mg/kg), Bupropion (30 and 40 mg/kg), and Imipramine (100 mg/kg) were similarly administered as controls.
# Similarly, (1) was also administered p.o. as a racemic mixture of enriched (95:5) diastereomer at either 35 or 75 mg/kg. […]
# in vivo = settings: rat
# rat = assay: acute single-dose toxicology in rat; format: in vivo; settings: rat (n = 5), i.v., observed 72 hours
# Procedure: An in vivo evaluation was carried out to determine the maximum tolerated dose of numerous test compounds in rat. The compounds were administered i.v., and the animals were then observed for 72 hours.
# Briefly, experimental rats, in groups of 5 animals, were administered with various doses of respective inhibitors (e.g. 30, 90, 120, and 200 mg/kg), and the observed toxicological effects were recorded.
# Sprague-Dawley rats = assay: 7 day multidose oral dosing toxicology study; format: in vivo, rat; settings: for 7 day multidose oral toxicology, symptoms: Sprague-Dawley rats n = 6 (3M/3F)
# Description: The representative results are listed below in Table VI.
# DAT = molecular target: T6, DAT (Homo sapiens, UniProt Q01959); settings: human recombinant CHO-K1 cells; historical value (MDS Pharma Services); read-out: KD of radioligand, DAT assay; cited from earlier work
# T6 construct: expressed in transfected cells; host or cells: CHO-K1
# NET = molecular target: T7, NET (Homo sapiens, UniProt P23975); settings: human recombinant MDCK cells; historical value (MDS Pharma Services); read-out: KD of radioligand, NET assay; cited from earlier work
# T7 construct: expressed in transfected cells; host or cells: MDCK
# T7 sequence (P23975 whole entry): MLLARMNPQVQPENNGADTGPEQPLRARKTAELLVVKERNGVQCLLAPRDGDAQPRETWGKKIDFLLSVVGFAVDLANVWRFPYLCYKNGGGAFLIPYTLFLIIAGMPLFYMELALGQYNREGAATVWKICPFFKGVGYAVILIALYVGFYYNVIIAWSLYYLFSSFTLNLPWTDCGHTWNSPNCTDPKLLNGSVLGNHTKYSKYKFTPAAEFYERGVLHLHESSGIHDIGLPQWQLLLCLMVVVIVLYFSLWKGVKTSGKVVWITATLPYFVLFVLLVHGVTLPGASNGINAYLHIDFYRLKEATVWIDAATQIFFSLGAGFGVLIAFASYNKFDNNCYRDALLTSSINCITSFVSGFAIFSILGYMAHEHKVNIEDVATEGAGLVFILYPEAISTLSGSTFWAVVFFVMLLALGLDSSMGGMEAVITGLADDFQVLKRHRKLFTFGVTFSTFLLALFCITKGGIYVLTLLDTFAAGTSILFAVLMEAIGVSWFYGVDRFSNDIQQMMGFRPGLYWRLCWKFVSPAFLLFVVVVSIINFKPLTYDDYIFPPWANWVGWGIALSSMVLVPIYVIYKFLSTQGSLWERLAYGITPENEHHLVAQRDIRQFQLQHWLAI
# T4 sequence (Q01959 whole entry): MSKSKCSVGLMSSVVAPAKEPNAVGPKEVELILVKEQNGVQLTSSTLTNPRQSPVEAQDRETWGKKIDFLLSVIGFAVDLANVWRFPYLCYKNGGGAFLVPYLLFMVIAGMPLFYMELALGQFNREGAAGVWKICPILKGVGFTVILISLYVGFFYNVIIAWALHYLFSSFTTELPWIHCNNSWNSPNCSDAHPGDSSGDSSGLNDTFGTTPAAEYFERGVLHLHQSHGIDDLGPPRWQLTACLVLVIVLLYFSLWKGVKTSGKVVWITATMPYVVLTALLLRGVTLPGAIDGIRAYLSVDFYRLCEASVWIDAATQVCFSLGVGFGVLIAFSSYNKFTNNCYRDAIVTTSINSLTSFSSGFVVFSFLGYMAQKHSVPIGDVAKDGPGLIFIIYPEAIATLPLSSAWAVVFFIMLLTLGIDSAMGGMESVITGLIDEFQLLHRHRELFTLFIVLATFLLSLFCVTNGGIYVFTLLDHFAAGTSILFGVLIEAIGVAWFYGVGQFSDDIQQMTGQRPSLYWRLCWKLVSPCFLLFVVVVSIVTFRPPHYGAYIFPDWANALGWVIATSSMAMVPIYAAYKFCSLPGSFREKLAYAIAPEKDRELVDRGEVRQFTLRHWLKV
# T2 sequence (Q01959 whole entry): as above
# 5-HT, sequence (P31645 whole entry): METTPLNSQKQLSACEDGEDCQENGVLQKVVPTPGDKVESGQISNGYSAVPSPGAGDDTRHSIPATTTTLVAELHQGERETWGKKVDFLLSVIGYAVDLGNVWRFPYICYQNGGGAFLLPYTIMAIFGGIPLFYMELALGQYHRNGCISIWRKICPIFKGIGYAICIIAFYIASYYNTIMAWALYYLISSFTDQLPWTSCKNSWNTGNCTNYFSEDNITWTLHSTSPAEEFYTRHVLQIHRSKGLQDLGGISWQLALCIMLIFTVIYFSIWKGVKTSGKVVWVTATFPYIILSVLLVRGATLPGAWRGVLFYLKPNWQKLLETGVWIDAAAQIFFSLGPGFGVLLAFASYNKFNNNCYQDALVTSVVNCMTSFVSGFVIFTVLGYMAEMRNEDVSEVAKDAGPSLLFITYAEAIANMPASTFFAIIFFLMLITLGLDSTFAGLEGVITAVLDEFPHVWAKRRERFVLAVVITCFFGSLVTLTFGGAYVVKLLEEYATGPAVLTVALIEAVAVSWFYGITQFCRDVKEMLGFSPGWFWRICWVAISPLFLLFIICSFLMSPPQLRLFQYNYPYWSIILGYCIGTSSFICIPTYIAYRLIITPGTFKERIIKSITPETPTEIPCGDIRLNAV
# NET (norepinephrine transporter or SLC6A2), sequence (P23975 whole entry): as the sequence (P23975 whole entry) above
# DAT (r), sequence (P23977 whole entry): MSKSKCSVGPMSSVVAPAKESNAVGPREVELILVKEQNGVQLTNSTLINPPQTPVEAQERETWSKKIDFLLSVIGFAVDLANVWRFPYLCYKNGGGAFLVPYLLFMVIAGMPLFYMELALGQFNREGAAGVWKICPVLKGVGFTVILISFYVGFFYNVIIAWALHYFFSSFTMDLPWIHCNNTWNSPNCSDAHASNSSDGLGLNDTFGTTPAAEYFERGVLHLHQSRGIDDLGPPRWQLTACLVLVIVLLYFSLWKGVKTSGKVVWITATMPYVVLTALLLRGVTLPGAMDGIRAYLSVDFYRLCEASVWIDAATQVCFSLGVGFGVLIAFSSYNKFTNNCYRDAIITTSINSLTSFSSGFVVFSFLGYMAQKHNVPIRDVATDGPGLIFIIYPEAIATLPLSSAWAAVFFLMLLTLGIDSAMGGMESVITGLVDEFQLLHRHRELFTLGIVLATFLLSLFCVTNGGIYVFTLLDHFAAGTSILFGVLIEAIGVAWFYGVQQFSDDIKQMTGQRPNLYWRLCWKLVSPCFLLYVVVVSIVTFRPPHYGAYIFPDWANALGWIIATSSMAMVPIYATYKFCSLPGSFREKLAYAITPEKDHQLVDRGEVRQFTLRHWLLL
# T1 sequence (P31645 whole entry): as the sequence (P31645 whole entry) above
# T6 sequence (Q01959 whole entry): as the sequence (Q01959 whole entry) above
# T3 sequence (P23975 whole entry): as the sequence (P23975 whole entry) above
# dopamine D2 receptor, sequence (P14416 whole entry): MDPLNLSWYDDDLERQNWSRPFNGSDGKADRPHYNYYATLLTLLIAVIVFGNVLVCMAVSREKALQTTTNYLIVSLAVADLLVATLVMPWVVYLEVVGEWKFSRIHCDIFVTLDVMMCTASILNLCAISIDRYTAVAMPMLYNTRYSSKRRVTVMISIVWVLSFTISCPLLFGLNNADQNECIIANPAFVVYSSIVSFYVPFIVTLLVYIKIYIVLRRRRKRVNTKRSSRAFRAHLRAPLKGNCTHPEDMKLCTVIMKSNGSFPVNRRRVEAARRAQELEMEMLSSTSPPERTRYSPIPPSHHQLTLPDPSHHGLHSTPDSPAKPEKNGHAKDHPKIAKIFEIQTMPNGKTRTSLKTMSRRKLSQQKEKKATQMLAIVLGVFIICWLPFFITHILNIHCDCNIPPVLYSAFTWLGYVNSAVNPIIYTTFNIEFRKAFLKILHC
# sigma-1 (σ1) receptor, sequence (Q99720 whole entry): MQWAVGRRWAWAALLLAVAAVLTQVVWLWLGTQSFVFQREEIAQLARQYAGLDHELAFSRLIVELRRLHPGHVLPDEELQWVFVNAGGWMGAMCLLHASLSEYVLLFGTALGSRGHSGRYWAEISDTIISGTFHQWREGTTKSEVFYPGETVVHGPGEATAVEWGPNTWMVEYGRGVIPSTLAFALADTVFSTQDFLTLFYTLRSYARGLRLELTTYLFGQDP
# Histamine H1 receptor, sequence (P35367 whole entry): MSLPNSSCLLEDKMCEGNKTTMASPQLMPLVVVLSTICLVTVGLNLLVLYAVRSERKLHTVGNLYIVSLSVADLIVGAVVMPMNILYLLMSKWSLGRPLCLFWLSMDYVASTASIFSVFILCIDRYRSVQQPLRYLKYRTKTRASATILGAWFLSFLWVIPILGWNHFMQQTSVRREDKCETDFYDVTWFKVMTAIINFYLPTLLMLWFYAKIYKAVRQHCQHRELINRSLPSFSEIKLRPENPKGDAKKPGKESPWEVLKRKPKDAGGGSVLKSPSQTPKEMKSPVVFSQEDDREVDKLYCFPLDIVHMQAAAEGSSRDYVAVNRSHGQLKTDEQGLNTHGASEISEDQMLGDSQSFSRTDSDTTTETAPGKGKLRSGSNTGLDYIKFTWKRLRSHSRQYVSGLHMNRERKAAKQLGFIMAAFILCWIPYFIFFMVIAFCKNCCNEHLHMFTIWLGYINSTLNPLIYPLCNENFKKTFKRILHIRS
# β1-adrenergic receptor, sequence (P08588 whole entry): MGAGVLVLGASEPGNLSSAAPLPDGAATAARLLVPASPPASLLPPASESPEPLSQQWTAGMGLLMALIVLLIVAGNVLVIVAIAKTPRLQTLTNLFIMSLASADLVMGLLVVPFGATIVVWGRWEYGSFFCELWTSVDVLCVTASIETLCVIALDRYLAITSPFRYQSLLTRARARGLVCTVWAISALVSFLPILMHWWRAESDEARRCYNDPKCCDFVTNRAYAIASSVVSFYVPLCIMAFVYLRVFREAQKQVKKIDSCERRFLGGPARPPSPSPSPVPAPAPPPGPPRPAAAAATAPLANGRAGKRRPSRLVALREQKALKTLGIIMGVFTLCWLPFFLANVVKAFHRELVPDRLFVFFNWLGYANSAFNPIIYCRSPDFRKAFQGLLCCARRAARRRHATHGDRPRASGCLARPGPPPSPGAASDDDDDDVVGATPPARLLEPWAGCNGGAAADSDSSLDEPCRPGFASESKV
compound,measurement,setting,value
CC1CCC(COc2ccc(C(F)(F)F)cc2)CN1CC1(c2ccc(Cl)cc2)CCC1 (centres unmarked) [(3)],EC50,5-HT (h),0.825 µM
same,EC50,DAT (h),0.001 µM
same,selectivity for DAT over 5-HT,DAT (h),825 fold
same,selectivity for DAT over NET,DAT (h),200 fold
same,EC50,NET (h),0.2 µM
same,EC50,DAT (r),0.05 µM
same,IC50,DAT (SLC6A3),0.001 µM
same,"fold selectivity of DAT against related receptors (NET, 5-HT)",DAT (SLC6A3),150-550 fold
same,IC50,[1],150 nM
same,IC50,5-HT,550 nM
same,M1 (nM)h,M1 receptor,5000 nM
same,Histamine H1 (nM)h,Histamine H1 receptor,5000 nM
same,Sigma σ1 (nM)h,sigma-1 (σ1) receptor,5000 nM
same,β1-adrenergic (nM)h,β1-adrenergic receptor,5000 nM
same,D2 (nM)h,dopamine D2 receptor,1000 nM
same,forced swim test efficacy versus commercial drugs (FIG. 1),rats,"performed equally well, if not better, than the commercial drugs Sibutramine, Bupropion, and Imipramine"
same,Vd,in vivo,10 L/kg
same,half-life,in vivo; iv,8.33 h
same,bioavailability,in vivo; po,70%
CC1CCC(COc2ccc(C(F)(F)F)cc2)CN1CC(O)C1(c2ccc(Cl)cc2)CCC1 (centres unmarked) [(4)],forced swim test efficacy versus commercial drugs (FIG. 1),rats,"performed equally well, if not better, than the commercial drugs Sibutramine, Bupropion, and Imipramine"
same,"acute single dose toxicology, observed symptoms",rat; 120 mg/kg,decreased grip strength and limb tone and convulsions
same,"acute single dose toxicology, observed symptoms",rat; 200 mg/kg,Convulsions
CC1C(COc2ccc(C(F)(F)F)cc2)CCCN1CC1(c2ccc(Cl)cc2)CCC1 (centres unmarked) [(5)],EC50,DAT (h),0.005 µM
same,selectivity for DAT over 5-HT,DAT (h),1000 fold
same,selectivity for DAT over NET,DAT (h),1000 fold
same,EC50,"DAT (r); rat, unit inferred, read-out: DAT (r) in vitro functional uptake",0.3 µM
same,IC50,DAT (SLC6A3),0.005 µM
same,"fold selectivity of DAT against related receptors (NET, 5-HT)",DAT (SLC6A3),"174-2,000 fold"
same,IC50,[1],870 nM
same,IC50,5-HT,10000 nM
CC1C(COc2ccc(C(F)(F)F)cc2)CCCN1CC(O)C1(c2ccc(Cl)cc2)CCC1 (centres unmarked) [(6)],"forced swim test efficacy versus commercial drugs (FIG. 2, FIG. 3)","rats; p.o., 35 or 75 mg/kg","performed equally well, if not better, than the commercial drugs Sibutramine, Bupropion, and Imipramine"
same,"acute single dose toxicology, observed symptoms",rat; 200 mg/kg,no observed symptoms
CC(C)CC(N(C)C)C1(c2ccc(Cl)cc2)CCC1 (centres unmarked) [Sibutramine],"7 day multidose oral toxicology, symptoms","Sprague-Dawley rats; oral 100 mg/kg/day, 100 mg/kg/day","decreased grip strength, depression"
same,"7 day multidose oral toxicology, symptoms","Sprague-Dawley rats; oral 400 mg/kg/day, 400 mg/kg/day",convulsions; also recorded: Convulsions;
same,"7 day multidose oral toxicology, deaths","Sprague-Dawley rats; n = 6, oral 200 mg/kg/day",2 deaths
same,"7 day multidose oral toxicology, self-mutilation (number of animals)","Sprague-Dawley rats; n = 6, oral 200 mg/kg/day",6 self-mutilation
COC(=O)[C@H]1[C@@H](c2ccc(I)cc2)C[C@@H]2CC[C@H]1N2C [[^125I] RTI-55],Kd,DAT,0.00058 µM
same,Kd,NET,0.024 µM

# Reference: patent US20100093706A1, “MULTIMEDIATOR TRANSPORTER INHIBITORS FOR USE IN TREATMENT OF CENTRAL NERVOUS SYSTEM DISORDERS” (priority 2006, published 2010)
